{"source": "patent US12702650B2", "about": "“Methods and compositions for treating smith-magenis syndrome” (The Regents of the University of California, priority 2019, dated 2026)", "key": {"Lgl1^+/− mice [1]": {"system": "Lgl1^+/− mice", "experiment": "three-chamber social interaction test after NMDAR blocker injection", "type": "in vivo, mouse", "experimental": "Pharmacological blockers of NMDARs were used, and animals tested in the three-chamber social interaction test.\nSocial interaction test—The social interaction test was performed as previously described (Yang et al., 2011). The sociability apparatus (Stoetling) has three 20 cm×40 cm chambers and two target enclosures 7 cm in diameter and 15 cm tall. During testing, the apparatus was surrounded by opaque panels to prevent mice from seeing out of the apparatus.\nAnimals were placed in the center chamber of the 3-chambered sociability apparatus with the doors between chambers closed for 10 minutes to habituate to the testing conditions. The doors were removed, and mice were allowed to explore the full field for 10 minutes. Non-littermate strain- and age-matched target mice from a separate cage were introduced during the social interaction phase of the test. For the social novelty phase, target mice from the social interaction phase were kept in the same location and a novel target mouse was introduced to the opposite chamber. For scoring of interaction time, ROIs containing the target mouse and novel object were selected in MATLAB. ROIs were selected by experimenters blinded to the animal genotypes or virus treatment.\nScoring for distance travelled and thigmotaxis during the open field test, as well as time spent interacting with objects in the Novel Object Recognition test and time spent interacting with target mice and objects in the Social Interaction test was performed using Autotyping 15.04 in MATLAB 2014b (Patel et al., 2014)(MathWorks)."}, "Lgl1^+/− mice [2]": {"system": "Lgl1^+/− mice", "experiment": "nestlet shredding (stereotyped repetitive behavior)", "type": "in vivo, mouse", "details": "Lgl1^+/+ and Lgl1^+/− mice; ketamine injection vs saline", "experimental": "Nestlet shredding—Mice were removed from their home cage and placed individually into a clean novel cage containing a weighed piece of cotton nesting material of approximately 2.8 g. Mice were left in the cage for 60 minutes. At the end of the testing period, mice were returned to their home cage. Shredded material was separated from the undisturbed portion, which was weighed (Li et al., 2006)."}}}
{"smiles": "C[C@]12N[C@H](Cc3ccccc31)c1ccccc12", "note": "[MK-801, dizocilpine]", "values": [{"measurement": "preference for social interaction (social interaction phase)", "setting": "Lgl1^+/− mice [1]; intraperitoneal injection of 0.3 mg/kg MK-801", "result": "strongly preferred social interaction"}]}
{"smiles": "CNC1(c2ccccc2Cl)CCCCC1=O", "note": "(stereo not shown) [ketamine]", "values": [{"measurement": "preference for social interaction (social interaction phase)", "setting": "Lgl1^+/− mice [1]; intraperitoneal injection of 30 mg/kg ketamine, compared with control animals", "result": "clear preference for social interaction"}, {"measurement": "nestlet-shredding activity", "setting": "Lgl1^+/− mice [2]", "result": "did not change"}]}
{"smiles": "CC12CC3CC(C)(C1)CC(N)(C3)C2", "note": "[memantine]", "values": [{"measurement": "preference for social interaction (social interaction phase)", "setting": "Lgl1^+/− mice [1]; intraperitoneal injection of 20 mg/kg memantine", "result": "strongly preferred social interaction"}]}
